{
  "source": "ChEMBL document CHEMBL3526014",
  "about": "“Correlation between bilirubin glucuronidation and estradiol-3-gluronidation in the presence of model UDP-glucuronosyltransferase 1A1 substrates/inhibitors” (Drug Metab Dispos, 2011)",
  "key": {"[1]": {"biological_target": "T1, UDP-glucuronosyltransferase 1A1 (Homo sapiens, UniProt P22309)", "T1 sequence (P22309 whole entry)": "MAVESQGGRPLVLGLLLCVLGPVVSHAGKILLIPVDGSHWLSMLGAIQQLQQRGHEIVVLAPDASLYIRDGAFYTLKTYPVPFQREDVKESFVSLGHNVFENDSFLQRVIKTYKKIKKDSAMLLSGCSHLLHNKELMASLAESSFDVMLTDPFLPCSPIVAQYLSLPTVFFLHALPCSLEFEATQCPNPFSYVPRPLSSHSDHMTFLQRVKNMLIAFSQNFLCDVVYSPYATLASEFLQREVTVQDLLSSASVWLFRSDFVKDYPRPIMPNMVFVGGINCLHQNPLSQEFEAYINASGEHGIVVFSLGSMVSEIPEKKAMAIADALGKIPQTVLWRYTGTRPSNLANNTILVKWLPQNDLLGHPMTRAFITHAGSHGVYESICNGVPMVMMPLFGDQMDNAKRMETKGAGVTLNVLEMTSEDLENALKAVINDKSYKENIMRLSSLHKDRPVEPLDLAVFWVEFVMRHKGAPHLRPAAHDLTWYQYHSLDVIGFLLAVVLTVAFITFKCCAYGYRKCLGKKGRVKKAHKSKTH", "assay": "Inhibition of human recombinant UGT1A1 expressed in HEK293 cells assessed as reduction in estradiol 3-glucuronidation by LC-MS/MS method", "assay_type": "ADME, cell-based"}, "[2]": {"biological_target": "T1, UDP-glucuronosyltransferase 1A1", "assay": "Inhibition of human recombinant UGT1A1 expressed in HEK293 cells assessed as reduction in bilirubin glucuronidation by LC-MS/MS method", "assay_type": "ADME, cell-based"}, "[3]": {"biological_target": "T1, UDP-glucuronosyltransferase 1A1", "assay": "Inhibition of human recombinant UGT1A1 expressed in HEK293 cells assessed as reduction in estradiol 3-glucuronidation using 4 to 75 uM estradiol by LC-MS/MS method", "assay_type": "ADME, cell-based"}, "[4]": {"biological_target": "T1, UDP-glucuronosyltransferase 1A1", "assay": "Activation of human recombinant UGT1A1 expressed in HEK293 cells assessed as increase in estradiol 3-glucuronidation by LC-MS/MS method relative to untreated control", "assay_type": "ADME, cell-based"}, "[5]": {"biological_target": "T1, UDP-glucuronosyltransferase 1A1", "assay": "Inhibition of human recombinant UGT1A1 expressed in HEK293 cells assessed as reduction in estradiol 3-glucuronidation at 50 uM using >15 uM estradiol by LC-MS/MS method", "assay_type": "ADME, cell-based", "details": "hek293, 50 µM; call rule not given here"}, "[6]": {"biological_target": "T1, UDP-glucuronosyltransferase 1A1", "assay": "Activation of human recombinant UGT1A1 expressed in HEK293 cells assessed as increase in estradiol 3-glucuronidation at 6.25 uM by LC-MS/MS method", "assay_type": "ADME, cell-based", "details": "hek293, 6.25 µM"}, "[7]": {"biological_target": "T1, UDP-glucuronosyltransferase 1A1", "assay": "Activation of human recombinant UGT1A1 expressed in HEK293 cells assessed as increase in estradiol 3-glucuronidation at 6.25 uM using 4 uM estradiol by LC-MS/MS method relative to untreated control", "assay_type": "ADME, cell-based", "details": "hek293, 6.25 µM"}, "[8]": {"biological_target": "T1, UDP-glucuronosyltransferase 1A1", "assay": "Activation of human recombinant UGT1A1 expressed in HEK293 cells assessed as increase in estradiol 3-glucuronidation using 15 uM estradiol by LC-MS/MS method relative to untreated control", "assay_type": "ADME, cell-based"}, "UGT1A1": {"biological_target": "T2, UGT1A1 (Homo sapiens, UniProt P22309)", "T2 sequence (P22309 whole entry)": "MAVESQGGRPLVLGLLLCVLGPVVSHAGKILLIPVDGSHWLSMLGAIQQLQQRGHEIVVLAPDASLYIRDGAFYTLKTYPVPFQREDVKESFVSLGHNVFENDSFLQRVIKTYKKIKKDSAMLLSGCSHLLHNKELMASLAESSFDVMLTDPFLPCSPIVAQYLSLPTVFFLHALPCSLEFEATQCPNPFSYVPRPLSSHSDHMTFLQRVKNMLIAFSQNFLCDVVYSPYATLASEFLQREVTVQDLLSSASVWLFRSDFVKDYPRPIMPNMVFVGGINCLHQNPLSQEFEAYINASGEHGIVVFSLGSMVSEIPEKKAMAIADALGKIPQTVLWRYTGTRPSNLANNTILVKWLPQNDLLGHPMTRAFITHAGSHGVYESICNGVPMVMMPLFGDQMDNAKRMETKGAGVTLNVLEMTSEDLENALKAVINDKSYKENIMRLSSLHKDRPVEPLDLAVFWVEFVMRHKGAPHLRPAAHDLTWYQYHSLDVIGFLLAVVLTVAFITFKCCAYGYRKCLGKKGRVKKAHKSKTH", "assay": "Activation of human recombinant UGT1A1 expressed in HEK293 cells assessed as increase in estradiol 3-glucuronidation using 7.5 uM estradiol by LC-MS/MS method relative to untreated control", "assay_type": "ADME, cell-based", "details": "probe estradiol (3-glucuronidation)"}, "[9]": {"substrate": "CCc1c2c(nc3ccc(O)cc13)-c1cc3c(c(=O)n1C2)COC(=O)[C@]3(O)CC", "assay": "Drug metabolism assessed as UGT1A1 (unknown origin)-mediated compound glucuronidation", "assay_type": "ADME, Homo sapiens"}},
  "data": [
    {"molecule": "O=C1NC(=O)C(c2ccccc2)(c2ccc(O)cc2)N1", "note": "(configuration not stated)", "values": [
      {"measurement": "IC50", "setting": "[1]; read-out: IC50", "result": 110, "unit": "µM"},
      {"measurement": "IC50", "setting": "[2]", "result": 120, "unit": "µM"}
    ]},
    {"molecule": "Cc1nnc(C(=O)NC(C)(C)c2nc(C(=O)NCc3ccc(F)cc3)c(O)c(=O)n2C)o1", "values": [
      {"measurement": "IC50", "setting": "[1]; read-out: IC50", "result": 190, "unit": "µM"},
      {"measurement": "IC50", "setting": "[2]", "result": 170, "unit": "µM"}
    ]},
    {"molecule": "O=C1c2ccc(O)cc2C(=O)c2ccc(O)cc21", "values": [
      {"measurement": "IC50", "setting": "[1]; read-out: IC50", "result": 4, "unit": "µM"},
      {"measurement": "IC50", "setting": "[2]", "result": 3.6, "unit": "µM"}
    ]},
    {"molecule": "Oc1cccc2ccccc12", "note": "[1-NAPHTHOL]", "values": [
      {"measurement": "IC50", "setting": "[1]; read-out: IC50", "result": 280, "unit": "µM"},
      {"measurement": "IC50", "setting": "[2]", "result": 240, "unit": "µM"}
    ]},
    {"molecule": "CCc1c2c(nc3ccc(O)cc13)-c1cc3c(c(=O)n1C2)COC(=O)[C@]3(O)CC", "note": "[7-ETHYL-10-HYDROXYCAMPTOTHECIN]", "values": [
      {"measurement": "inhibition (INH)", "setting": "[3]", "result": 40, "unit": "%"},
      {"measurement": "IC50", "setting": "[1]; hek293", "result": "Not Active"},
      {"measurement": "IC50", "setting": "[2]", "result": 360, "unit": "µM"}
    ]},
    {"molecule": "O=c1cc(-c2ccccc2)oc2cc(O)c(O)c(O)c12", "note": "[BAICALEIN]", "values": [
      {"measurement": "IC50", "setting": "[1]; read-out: IC50", "result": 4.4, "unit": "µM"},
      {"measurement": "IC50", "setting": "[2]", "result": 7, "unit": "µM"}
    ]},
    {"molecule": "O=c1c(-c2ccc(O)cc2)coc2cc(O)ccc12", "note": "[DAIDZEIN]", "values": [
      {"measurement": "Activity", "setting": "[4]", "result": "Active"},
      {"measurement": "inhibition (INH)", "setting": "[5]", "result": "Active"},
      {"measurement": "Activity", "setting": "[6]", "result": "Active"},
      {"measurement": "Activity", "setting": "[7]", "result": 392, "unit": "%"},
      {"measurement": "IC50", "setting": "[1]; read-out: IC50", "result": 120, "unit": "µM"},
      {"measurement": "IC50", "setting": "[2]", "result": 7.3, "unit": "µM"}
    ]},
    {"molecule": "C#C[C@]1(O)CC[C@H]2[C@@H]3CCc4cc(O)ccc4[C@H]3CC[C@@]21C", "note": "[ETHINYL ESTRADIOL]", "values": [
      {"measurement": "Activity", "setting": "[4]", "result": "Active"},
      {"measurement": "Activity", "setting": "[8]", "result": 128, "unit": "%"},
      {"measurement": "IC50", "setting": "[1]; read-out: IC50", "result": 44, "unit": "µM"},
      {"measurement": "IC50", "setting": "[2]", "result": 21, "unit": "µM"},
      {"measurement": "Activity", "setting": "UGT1A1", "result": "≤ 140", "unit": "%"}
    ]},
    {"molecule": "CC(C)=CCC/C(C)=C/CC/C(C)=C/CO", "note": "[FARNESOL]", "values": [
      {"measurement": "IC50", "setting": "[1]; read-out: IC50", "result": 40, "unit": "µM"},
      {"measurement": "IC50", "setting": "[2]", "result": 47, "unit": "µM"}
    ]},
    {"molecule": "Cc1cc(=O)oc2cc(O)ccc12", "note": "[HYMECROMONE]", "values": [
      {"measurement": "IC50", "setting": "[1]; read-out: IC50", "result": 100, "unit": "µM"},
      {"measurement": "IC50", "setting": "[2]", "result": 100, "unit": "µM"}
    ]},
    {"molecule": "CC(=O)N1CCN(c2ccc(OCC3COC(Cn4ccnc4)(c4ccc(Cl)cc4Cl)O3)cc2)CC1", "note": "(configuration not stated) [KETOCONAZOLE]", "values": [
      {"measurement": "IC50", "setting": "[1]; read-out: IC50", "result": 13, "unit": "µM"},
      {"measurement": "IC50", "setting": "[2]", "result": 27, "unit": "µM"}
    ]},
    {"molecule": "N[C@@H](Cc1cc(I)c(Oc2cc(I)c(O)c(I)c2)c(I)c1)C(=O)O", "note": "[LEVOTHYROXINE]", "values": [
      {"measurement": "IC50", "setting": "[1]; read-out: IC50", "result": 5.6, "unit": "µM"},
      {"measurement": "IC50", "setting": "[2]", "result": 4.9, "unit": "µM"}
    ]},
    {"molecule": "O=C(O)c1cccnc1Nc1cccc(C(F)(F)F)c1", "note": "[NIFLUMIC ACID]", "values": [
      {"measurement": "IC50", "setting": "[1]; read-out: IC50", "result": 13, "unit": "µM"},
      {"measurement": "IC50", "setting": "[2]", "result": 53, "unit": "µM"}
    ]},
    {"molecule": "Nc1nc2ccc(OC(F)(F)F)cc2s1", "note": "[RILUZOLE]", "values": [
      {"measurement": "IC50", "setting": "[1]; read-out: IC50", "result": 160, "unit": "µM"},
      {"measurement": "IC50", "setting": "[2]", "result": 180, "unit": "µM"}
    ]},
    {"molecule": "UDP-glucuronosyltransferase 1A1 (Homo sapiens) (protein) MAVESQGGRPLVLGLLLCVLGPVVSHAGKILLIPVDGSHWLSMLGAIQQLQQRGHEIVVLAPDASLYIRDGAFYTLKTYPVPFQREDVKESFVSLGHNVFENDSFLQRVIKTYKKIKKDSAMLLSGCSHLLHNKELMASLAESSFDVMLTDPFLPCSPIVAQYLSLPTVFFLHALPCSLEFEATQCPNPFSYVPRPLSSHSDHMTFLQRVKNMLIAFSQNFLCDVVYSPYATLASEFLQREVTVQDLLSSASVWLFRSDFVKDYPRPIMPNMVFVGGINCLHQNPLSQEFEAYINASGEHGIVVFSLGSMVSEIPEKKAMAIADALGKIPQTVLWRYTGTRPSNLANNTILVKWLPQNDLLGHPMTRAFITHAGSHGVYESICNGVPMVMMPLFGDQMDNAKRMETKGAGVTLNVLEMTSEDLENALKAVINDKSYKENIMRLSSLHKDRPVEPLDLAVFWVEFVMRHKGAPHLRPAAHDLTWYQYHSLDVIGFLLAVVLTVAFITFKCCAYGYRKCLGKKGRVKKAHKSKTH", "values": [
      {"measurement": "Km", "setting": "[9]", "result": 25, "unit": "µM"}
    ]}
  ]
}
